Laboratory results: patent US20250353891A1 (MEDIMMUNE LIMITED, priority 2022, published 2025)
pEC50: −log10 of the molar value. Starred links: 1 amine or outer side, 2 acyl side, 3 side chain; linkers in the order of their positions; H or OH if unused. Non-standard residues stand in square brackets, D forms with d. Residues, ends and D or L forms follow the SMILES beside them. Groups on a side chain read outwards from the residue. *: point of attachment. C18 diacid = O=C(O)CCCCCCCCCCCCCCCCC(=O)*; γGlu = O=C(O)[C@H](CCC(=O)[*:2])N[*:1]; Stearoyl = CCCCCCCCCCCCCCCCCC(=O)*; Palmitoyl = CCCCCCCCCCCCCCCC(=O)*; αMeF = C[C@](N)(Cc1ccccc1)C(=O)O; Myristoyl = CCCCCCCCCCCCCC(=O)*; αMeS = C[C@](N)(CO)C(=O)O; PEG2 = NCCOCCOCCC(=O)O; AEEA = NCCOCCOCC(=O)O; Aib = CC(C)(N)C(=O)O

Assays:
[1] = target: human GLP-1 receptor (hGLP-1R) (Homo sapiens, UniProt P43220); assay: cAMP production (HTRF) in CHO cells expressing hGLP-1R; format: cell-based; parameters: expressed in transfected cells; conditions: for % Relative Potency Ratio: Table 6, % GLP-1R activity relative to GLP-1 / % GlucR activity relative to glucagon; for pEC50: Table 6, peptides modified at position 17, cAMP in CHO hGLP-1R cells, geometric mean, read-out: hGLP-1R EC50
Procedure, shortened: (§1)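 Read-out: HTRF cAMP (anti-cAMP cryptate donor, cAMP-d2 acceptor in conjugate/lysis buffer), converted to % Delta F and fitted by 4-parameter logistic for EC50. Cell densities were 1×10^5 cells/mL (hGLP-1R) or 2×10^5 cells/mL (hGCGR). Stimulation lasted 30 min at room temperature.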

[2] = target: human glucagon receptor (hGCGR) (Homo sapiens, UniProt P47871); assay: cAMP production (HTRF) in CHO cells expressing hGCGR; format: cell-based; parameters: expressed in transfected cells; conditions: Table 6, peptides modified at position 17; cAMP in CHO hGCGR cells; geometric mean; read-out: hGluc-R EC50
Procedure, shortened: as §1

Chain of human GLP-1 receptor (hGLP-1R) (P43220 24-463): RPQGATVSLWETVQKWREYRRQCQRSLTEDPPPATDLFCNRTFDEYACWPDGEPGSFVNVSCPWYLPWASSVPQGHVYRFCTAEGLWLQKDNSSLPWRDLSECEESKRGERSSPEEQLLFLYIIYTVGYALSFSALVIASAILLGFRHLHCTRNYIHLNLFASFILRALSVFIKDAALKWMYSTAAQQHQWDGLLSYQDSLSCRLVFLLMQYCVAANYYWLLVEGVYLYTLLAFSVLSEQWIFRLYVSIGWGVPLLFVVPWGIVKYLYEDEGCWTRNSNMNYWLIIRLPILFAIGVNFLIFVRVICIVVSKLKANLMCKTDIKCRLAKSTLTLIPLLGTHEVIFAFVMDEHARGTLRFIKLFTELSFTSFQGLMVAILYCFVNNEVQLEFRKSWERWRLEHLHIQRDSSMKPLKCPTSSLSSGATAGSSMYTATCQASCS
Chain of human glucagon receptor (hGCGR) (P47871 26-477): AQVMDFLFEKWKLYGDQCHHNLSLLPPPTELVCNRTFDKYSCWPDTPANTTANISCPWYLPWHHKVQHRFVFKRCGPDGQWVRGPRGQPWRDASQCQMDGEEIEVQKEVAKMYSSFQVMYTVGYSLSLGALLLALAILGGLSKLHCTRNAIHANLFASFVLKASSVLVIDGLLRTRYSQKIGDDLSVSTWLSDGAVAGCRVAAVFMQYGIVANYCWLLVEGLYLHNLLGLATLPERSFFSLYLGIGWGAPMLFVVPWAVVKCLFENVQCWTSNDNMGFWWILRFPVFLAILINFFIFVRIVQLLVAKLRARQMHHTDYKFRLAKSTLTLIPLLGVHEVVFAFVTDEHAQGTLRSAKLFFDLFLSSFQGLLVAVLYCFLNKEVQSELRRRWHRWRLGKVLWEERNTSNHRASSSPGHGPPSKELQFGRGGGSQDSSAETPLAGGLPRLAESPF

SMILES | % Relative Potency Ratio [1] | pEC50 [2] | pEC50 [1]
CCCCCCCCCCCCCC(=O)N[C@@H](CCC(=O)N[C@@H](CCC(=O)NCCOCCOCCC(=O)NCCOCCOCCC(=O)NCCCC[C@H](NC(=O)[C@H](CO)NC(=O)[C@H](CC(=O)O)NC(=O)[C@H](CC(C)C)NC(=O)[C@@H](NC(=O)[C@H](CCCCN)NC(=O)[C@H](CO)NC(=O)[C@@H](NC(=O)[C@H](CC(=O)O)NC(=O)[C@H](CO)NC(=O)[C@@H](NC(=O)[C@](C)(Cc1ccccc1)NC(=O)[C@H](CO)NC(=O)CNC(=O)[C@H](CCC(N)=O)NC(=O)[C@](C)(CO)NC(=O)[C@@H](N)Cc1c[nH]cn1)[C@@H](C)O)C(C)C)[C@@H](C)CC)C(=O)N[C@@H](C)C(=O)N[C@@H](C)C(=O)N[C@@H](CCC(N)=O)C(=O)N[C@@H](CC(=O)O)C(=O)N[C@@](C)(Cc1ccccc1)C(=O)N[C@H](C(=O)N[C@@H](CCC(N)=O)C(=O)NC(C)(C)C(=O)N[C@H](C(=O)N[C@H](C(=O)N[C@@H](CC(N)=O)C(=O)N[C@H](C(N)=O)[C@@H](C)O)[C@@H](C)CC)[C@@H](C)CC)C(C)C)C(=O)O)C(=O)O [Peptide 132] (H-H[αMeS]QGS[αMeF]TSDVSKILDSK([PEG2-PEG2-γGlu-γGlu-Myristoyl])AAQD[αMeF]VQ[Aib]IINT-NH2; N-terminus assumed) | 71.5 | 10.46 | –
CCCCCCCCCCCCCCCCCC(=O)N[C@@H](CCC(=O)NCCOCCOCCC(=O)NCCOCCOCCC(=O)NCCCC[C@H](NC(=O)[C@H](CO)NC(=O)[C@H](CC(=O)O)NC(=O)[C@H](CC(C)C)NC(=O)[C@@H](NC(=O)[C@H](CCCCN)NC(=O)[C@H](CO)NC(=O)[C@@H](NC(=O)[C@H](CC(=O)O)NC(=O)[C@H](CO)NC(=O)[C@@H](NC(=O)[C@](C)(Cc1ccccc1)NC(=O)[C@H](CO)NC(=O)CNC(=O)[C@H](CCC(N)=O)NC(=O)[C@](C)(CO)NC(=O)[C@@H](N)Cc1c[nH]cn1)[C@@H](C)O)C(C)C)[C@@H](C)CC)C(=O)N[C@@H](C)C(=O)N[C@@H](C)C(=O)N[C@@H](CCC(N)=O)C(=O)N[C@@H](CC(=O)O)C(=O)N[C@@](C)(Cc1ccccc1)C(=O)N[C@H](C(=O)N[C@@H](CCC(N)=O)C(=O)NC(C)(C)C(=O)N[C@H](C(=O)N[C@H](C(=O)N[C@@H](CC(N)=O)C(=O)N[C@H](C(N)=O)[C@@H](C)O)[C@@H](C)CC)[C@@H](C)CC)C(C)C)C(=O)O [Peptide 133] (H-H[αMeS]QGS[αMeF]TSDVSKILDSK([PEG2-PEG2-γGlu-Stearoyl])AAQD[αMeF]VQ[Aib]IINT-NH2; N-terminus assumed) | 55.9 | 10.52 | 11.97
CCCCCCCCCCCCCCCC(=O)N[C@@H](CCC(=O)NCCOCCOCCC(=O)NCCOCCOCCC(=O)NCCCC[C@H](NC(=O)[C@H](CO)NC(=O)[C@H](CC(=O)O)NC(=O)[C@H](CC(C)C)NC(=O)[C@@H](NC(=O)[C@H](CCCCN)NC(=O)[C@H](CO)NC(=O)[C@@H](NC(=O)[C@H](CC(=O)O)NC(=O)[C@H](CO)NC(=O)[C@@H](NC(=O)[C@](C)(Cc1ccccc1)NC(=O)[C@H](CO)NC(=O)CNC(=O)[C@H](CCC(N)=O)NC(=O)[C@](C)(CO)NC(=O)[C@@H](N)Cc1c[nH]cn1)[C@@H](C)O)C(C)C)[C@@H](C)CC)C(=O)N[C@@H](C)C(=O)N[C@@H](C)C(=O)N[C@@H](CCC(N)=O)C(=O)N[C@@H](CC(=O)O)C(=O)N[C@@](C)(Cc1ccccc1)C(=O)N[C@H](C(=O)N[C@@H](CCC(N)=O)C(=O)NC(C)(C)C(=O)N[C@H](C(=O)N[C@H](C(=O)N[C@@H](CC(N)=O)C(=O)N[C@H](C(N)=O)[C@@H](C)O)[C@@H](C)CC)[C@@H](C)CC)C(C)C)C(=O)O [Peptide 134] (H-H[αMeS]QGS[αMeF]TSDVSKILDSK([PEG2-PEG2-γGlu-Palmitoyl])AAQD[αMeF]VQ[Aib]IINT-NH2; N-terminus assumed) | 50.1 | 10.82 | –
CCCCCCCCCCCCCC(=O)N[C@@H](CCC(=O)NCCOCCOCCC(=O)NCCOCCOCCC(=O)NCCCC[C@H](NC(=O)[C@H](CO)NC(=O)[C@H](CC(=O)O)NC(=O)[C@H](CC(C)C)NC(=O)[C@@H](NC(=O)[C@H](CCCCN)NC(=O)[C@H](CO)NC(=O)[C@@H](NC(=O)[C@H](CC(=O)O)NC(=O)[C@H](CO)NC(=O)[C@@H](NC(=O)[C@](C)(Cc1ccccc1)NC(=O)[C@H](CO)NC(=O)CNC(=O)[C@H](CCC(N)=O)NC(=O)[C@](C)(CO)NC(=O)[C@@H](N)Cc1c[nH]cn1)[C@@H](C)O)C(C)C)[C@@H](C)CC)C(=O)N[C@@H](C)C(=O)N[C@@H](C)C(=O)N[C@@H](CCC(N)=O)C(=O)N[C@@H](CC(=O)O)C(=O)N[C@@](C)(Cc1ccccc1)C(=O)N[C@H](C(=O)N[C@@H](CCC(N)=O)C(=O)NC(C)(C)C(=O)N[C@H](C(=O)N[C@H](C(=O)N[C@@H](CC(N)=O)C(=O)N[C@H](C(N)=O)[C@@H](C)O)[C@@H](C)CC)[C@@H](C)CC)C(C)C)C(=O)O [Peptide 135] (H-H[αMeS]QGS[αMeF]TSDVSKILDSK([PEG2-PEG2-γGlu-Myristoyl])AAQD[αMeF]VQ[Aib]IINT-NH2; N-terminus assumed) | 72.8 | 10.82 | –
CC(C)C[C@H](NC(=O)[C@H](CC(C)C)NC(=O)[C@H](Cc1c[nH]c2ccccc12)NC(=O)[C@H](CCCNC(=N)N)NC(=O)[C@@H](NC(=O)[C@H](Cc1ccccc1)NC(=O)[C@H](CC(=O)O)NC(=O)[C@H](CCC(N)=O)NC(=O)[C@H](C)NC(=O)[C@H](CCCNC(=N)N)NC(=O)[C@H](CCCCNC(=O)CC[C@H](NC(=O)CC[C@H](NC(=O)COCCOCCNC(=O)COCCOCCNC(=O)CC[C@H](NC(=O)CC[C@H](NC(=O)CCCCCCCCCCCCCCCCC(=O)O)C(=O)O)C(=O)O)C(=O)O)C(=O)O)NC(=O)[C@H](CO)NC(=O)[C@H](CC(=O)O)NC(=O)[C@H](CC(C)C)NC(=O)[C@](C)(Cc1ccccc1)NC(=O)[C@H](CCCCN)NC(=O)[C@H](CO)NC(=O)[C@@H](NC(=O)[C@H](CC(=O)O)NC(=O)[C@H](CO)NC(=O)[C@@H](NC(=O)[C@H](Cc1ccccc1)NC(=O)[C@@H](NC(=O)CNC(=O)[C@H](CCC(N)=O)NC(=O)C(C)(C)NC(=O)[C@@H](N)Cc1c[nH]cn1)[C@@H](C)O)[C@@H](C)O)C(C)C)C(C)C)C(=O)N[C@@H](CCC(=O)O)C(=O)NCC(=O)NC(C)(C)C(=O)O [Peptide 137] (H-H[Aib]QGTFTSDVSK[αMeF]LDSK([γGlu-γGlu-AEEA-AEEA-γGlu-γGlu-C18 diacid])RAQDFVRWLLEG[Aib]-OH; N-terminus assumed) | 3.7 | 9.57 | 9.84
CC(C)C[C@H](NC(=O)[C@H](Cc1c[nH]c2ccccc12)NC(=O)[C@H](CCCNC(=N)N)NC(=O)[C@@H](NC(=O)[C@H](Cc1ccccc1)NC(=O)[C@H](CC(=O)O)NC(=O)[C@H](CCC(N)=O)NC(=O)[C@H](C)NC(=O)[C@H](CCCNC(=N)N)NC(=O)[C@H](CCCCNC(=O)CC[C@H](NC(=O)CC[C@H](NC(=O)COCCOCCNC(=O)COCCOCCNC(=O)CC[C@H](NC(=O)CC[C@H](NC(=O)CCCCCCCCCCCCCCCCC(=O)O)C(=O)O)C(=O)O)C(=O)O)C(=O)O)NC(=O)[C@H](CO)NC(=O)[C@H](CC(=O)O)NC(=O)[C@H](CC(C)C)NC(=O)[C@](C)(Cc1ccccc1)NC(=O)[C@H](CCCCN)NC(=O)[C@H](CO)NC(=O)[C@@H](NC(=O)[C@H](CC(=O)O)NC(=O)[C@H](CO)NC(=O)[C@@H](NC(=O)[C@H](Cc1ccccc1)NC(=O)[C@@H](NC(=O)CNC(=O)[C@H](CCC(N)=O)NC(=O)C(C)(C)NC(=O)[C@@H](N)Cc1c[nH]cn1)[C@@H](C)O)[C@@H](C)O)C(C)C)C(C)C)C(=O)N[C@@H](CC(C)C)C(=O)N[C@@H](CCC(=O)O)C(=O)NC(C)(C)C(=O)NCC(=O)O [Peptide 138] (H-H[Aib]QGTFTSDVSK[αMeF]LDSK([γGlu-γGlu-AEEA-AEEA-γGlu-γGlu-C18 diacid])RAQDFVRWLLE[Aib]G-OH; N-terminus assumed) | 3.5 | 9.74 | 9.98
CC(C)C[C@H](NC(=O)[C@H](Cc1c[nH]c2ccccc12)NC(=O)[C@H](CCCNC(=N)N)NC(=O)[C@@H](NC(=O)[C@H](Cc1ccccc1)NC(=O)[C@H](CC(=O)O)NC(=O)[C@H](CCC(N)=O)NC(=O)[C@H](C)NC(=O)[C@H](CCCNC(=N)N)NC(=O)[C@H](CCCCNC(=O)CC[C@H](NC(=O)CC[C@H](NC(=O)COCCOCCNC(=O)COCCOCCNC(=O)CC[C@H](NC(=O)CC[C@H](NC(=O)CCCCCCCCCCCCCCCCCCC(=O)O)C(=O)O)C(=O)O)C(=O)O)C(=O)O)NC(=O)[C@H](CO)NC(=O)[C@H](CC(=O)O)NC(=O)[C@H](CC(C)C)NC(=O)[C@](C)(Cc1ccccc1)NC(=O)[C@H](CCCCN)NC(=O)[C@H](CO)NC(=O)[C@@H](NC(=O)[C@H](CC(=O)O)NC(=O)[C@H](CO)NC(=O)[C@@H](NC(=O)[C@H](Cc1ccccc1)NC(=O)[C@@H](NC(=O)CNC(=O)[C@H](CCC(N)=O)NC(=O)C(C)(C)NC(=O)[C@@H](N)Cc1c[nH]cn1)[C@@H](C)O)[C@@H](C)O)C(C)C)C(C)C)C(=O)N[C@@H](CC(C)C)C(=O)N[C@@H](CCC(=O)O)C(=O)NC(C)(C)C(=O)NCC(=O)O [Peptide 139] | 3.1 | 9.01 | 9.20
